Values of other authors in patent US20070065414A1, “Enhanced delivery of cells” (Boston Scientific Scimed, Inc., priority 2005, published 2007).

Conditions: general statement, no experiment described

## Nc1ncnc2c1ncn2[C@@H]1O[C@H](CO)[C@@H](O)[C@H]1O [Adenosine, adenosine]
  blood pool half-life: only a few seconds
